Here are results for 47 molecules from paper PMC3226499, “Environmental Impact on Vascular Development Predicted by High-Throughput Screening” (Environmental Health Perspectives, 2011).

Read-outs that look alike come from different tables or passages of the source.

As a reminder, the AC50 is the concentration giving half of the maximal activity seen.

In data set [1] the test system is six prioritized vascular targets (VEGFR2, TIE2, CCL2, PAI-1, CXCL10, uPAR). Briefly: Vascular bioactivity score (VBS): weighted sum of activity across 23 ToxCast assays. Also on record: species or system human.
The subject of the next data set is pregnant rabbits. As to conditions: cited from earlier work.
A further data set has as its system pregnant rats. As to conditions: cited from earlier work.
The target of another data set is TIE2 (Homo sapiens, UniProt Q02763). Briefly: TIE2 cell-free biochemical assay.
For the next data set, the target named is VEGFR3 (Homo sapiens, UniProt P35916). Briefly: VEGFR3 biochemical assay.
In another data set the target is PTEN (Homo sapiens, UniProt P60484). As to the kind of experiment: PTEN biochemical assay.
Another data set addresses VEGFR2 (Homo sapiens, UniProt P35968). As to the kind of experiment: VEGFR2 biochemical assay.
A further data set deals with PI3Ka (Homo sapiens, UniProt P42336). As to the kind of experiment: PI3Ka biochemical assay.
Where [2] appears, read: pVDCs with rabbit-specific effects.
Setting [3] is: rabbit-specific effects in ToxRefDB prenatal studies, ref U.S. EPA 2010b.
Setting [4] is: pVDCs with rat-specific effects.
The mark [5] stands for this setting: rat-specific effects in ToxRefDB prenatal studies, ref U.S. EPA 2010b.
The mark [6] stands for this setting: ranking of 309 phase I chemicals, mean cutoff for pVDC.

Sequence of PTEN (P60484 whole entry, species assumed): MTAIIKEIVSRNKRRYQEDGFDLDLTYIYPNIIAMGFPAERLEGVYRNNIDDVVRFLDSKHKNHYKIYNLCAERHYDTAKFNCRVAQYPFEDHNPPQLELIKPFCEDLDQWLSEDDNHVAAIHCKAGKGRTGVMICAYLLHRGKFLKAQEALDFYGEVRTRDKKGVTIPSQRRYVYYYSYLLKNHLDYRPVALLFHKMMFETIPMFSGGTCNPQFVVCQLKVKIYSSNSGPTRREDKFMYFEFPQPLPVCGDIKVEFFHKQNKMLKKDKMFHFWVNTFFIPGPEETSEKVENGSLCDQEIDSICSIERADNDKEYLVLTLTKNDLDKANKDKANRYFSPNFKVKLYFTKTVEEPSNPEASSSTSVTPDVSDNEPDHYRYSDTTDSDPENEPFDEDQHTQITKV
Sequence of PI3Ka (P42336 whole entry): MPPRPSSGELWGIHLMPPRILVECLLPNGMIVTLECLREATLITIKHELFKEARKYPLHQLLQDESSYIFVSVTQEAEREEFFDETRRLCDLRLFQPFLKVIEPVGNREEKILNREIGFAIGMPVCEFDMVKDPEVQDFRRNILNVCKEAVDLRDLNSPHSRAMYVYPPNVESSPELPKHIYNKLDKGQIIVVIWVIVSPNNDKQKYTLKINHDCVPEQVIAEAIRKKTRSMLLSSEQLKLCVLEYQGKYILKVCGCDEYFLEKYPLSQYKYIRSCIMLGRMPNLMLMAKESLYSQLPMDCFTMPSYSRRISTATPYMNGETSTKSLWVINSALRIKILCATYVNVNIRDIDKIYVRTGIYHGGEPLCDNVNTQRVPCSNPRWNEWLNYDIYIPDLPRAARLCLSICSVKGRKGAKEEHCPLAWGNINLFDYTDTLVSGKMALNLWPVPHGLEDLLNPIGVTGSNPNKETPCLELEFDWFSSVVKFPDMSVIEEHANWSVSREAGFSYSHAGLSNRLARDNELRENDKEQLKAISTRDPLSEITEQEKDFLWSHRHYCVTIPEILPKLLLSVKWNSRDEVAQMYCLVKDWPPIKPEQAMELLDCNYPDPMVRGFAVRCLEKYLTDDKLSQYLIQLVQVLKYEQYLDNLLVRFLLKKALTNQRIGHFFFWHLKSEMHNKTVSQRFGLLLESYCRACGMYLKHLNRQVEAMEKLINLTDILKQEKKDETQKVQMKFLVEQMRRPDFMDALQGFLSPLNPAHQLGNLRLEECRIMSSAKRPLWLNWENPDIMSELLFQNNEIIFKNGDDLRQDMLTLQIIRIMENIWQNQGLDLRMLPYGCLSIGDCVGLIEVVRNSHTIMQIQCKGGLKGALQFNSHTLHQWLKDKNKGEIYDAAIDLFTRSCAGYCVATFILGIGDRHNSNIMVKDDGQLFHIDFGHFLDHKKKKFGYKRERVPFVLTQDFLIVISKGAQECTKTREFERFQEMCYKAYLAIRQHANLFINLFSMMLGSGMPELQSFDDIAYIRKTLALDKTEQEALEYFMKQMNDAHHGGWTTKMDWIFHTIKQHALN
Sequence of PI3Ka (P27986 whole entry partner): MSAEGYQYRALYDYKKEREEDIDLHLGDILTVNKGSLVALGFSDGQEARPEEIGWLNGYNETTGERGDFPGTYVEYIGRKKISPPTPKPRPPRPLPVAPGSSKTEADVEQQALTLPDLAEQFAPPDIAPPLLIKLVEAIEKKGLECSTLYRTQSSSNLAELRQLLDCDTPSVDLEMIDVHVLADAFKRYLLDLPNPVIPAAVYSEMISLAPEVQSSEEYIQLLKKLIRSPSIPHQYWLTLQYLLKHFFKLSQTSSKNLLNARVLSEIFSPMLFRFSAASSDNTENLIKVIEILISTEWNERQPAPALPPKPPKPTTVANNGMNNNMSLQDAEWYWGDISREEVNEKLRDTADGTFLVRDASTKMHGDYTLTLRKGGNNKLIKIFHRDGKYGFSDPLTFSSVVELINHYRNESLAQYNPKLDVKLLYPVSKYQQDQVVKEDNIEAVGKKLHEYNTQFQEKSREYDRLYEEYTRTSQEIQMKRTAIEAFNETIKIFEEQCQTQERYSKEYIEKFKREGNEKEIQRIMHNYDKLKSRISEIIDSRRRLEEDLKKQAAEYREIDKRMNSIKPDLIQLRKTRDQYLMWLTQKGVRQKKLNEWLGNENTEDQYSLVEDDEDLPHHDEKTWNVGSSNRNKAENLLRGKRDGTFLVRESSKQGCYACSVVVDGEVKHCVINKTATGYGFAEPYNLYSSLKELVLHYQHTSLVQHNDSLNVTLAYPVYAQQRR
Sequence of TIE2 (Q02763 23-1124, species assumed): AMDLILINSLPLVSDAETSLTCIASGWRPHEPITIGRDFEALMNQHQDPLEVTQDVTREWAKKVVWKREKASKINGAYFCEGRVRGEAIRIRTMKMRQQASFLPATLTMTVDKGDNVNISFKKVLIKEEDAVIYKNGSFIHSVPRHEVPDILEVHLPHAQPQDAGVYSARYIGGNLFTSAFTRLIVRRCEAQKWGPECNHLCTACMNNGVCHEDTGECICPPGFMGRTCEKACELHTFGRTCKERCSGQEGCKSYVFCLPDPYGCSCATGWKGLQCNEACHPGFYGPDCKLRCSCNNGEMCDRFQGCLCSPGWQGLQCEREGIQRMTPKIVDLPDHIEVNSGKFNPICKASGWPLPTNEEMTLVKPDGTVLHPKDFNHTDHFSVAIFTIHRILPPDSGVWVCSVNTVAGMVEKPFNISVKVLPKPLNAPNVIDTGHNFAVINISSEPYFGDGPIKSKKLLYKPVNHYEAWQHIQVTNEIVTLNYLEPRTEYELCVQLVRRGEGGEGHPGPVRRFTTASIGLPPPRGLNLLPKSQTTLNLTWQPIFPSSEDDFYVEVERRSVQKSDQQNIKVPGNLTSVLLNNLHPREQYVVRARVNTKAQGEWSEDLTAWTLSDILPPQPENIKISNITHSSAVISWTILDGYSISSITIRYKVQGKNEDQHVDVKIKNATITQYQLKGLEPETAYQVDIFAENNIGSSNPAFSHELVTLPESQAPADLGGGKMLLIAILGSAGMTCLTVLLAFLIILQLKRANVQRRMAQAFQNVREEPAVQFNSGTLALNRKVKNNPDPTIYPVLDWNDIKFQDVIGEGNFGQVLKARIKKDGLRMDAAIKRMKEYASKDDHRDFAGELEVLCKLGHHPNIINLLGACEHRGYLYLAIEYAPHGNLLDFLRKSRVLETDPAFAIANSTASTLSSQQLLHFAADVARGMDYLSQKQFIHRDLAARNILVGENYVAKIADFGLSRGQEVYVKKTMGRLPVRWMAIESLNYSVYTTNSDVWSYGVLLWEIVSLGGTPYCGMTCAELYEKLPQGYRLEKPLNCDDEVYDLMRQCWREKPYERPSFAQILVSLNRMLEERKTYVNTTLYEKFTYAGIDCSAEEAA
Sequence of VEGFR2 (P35968 20-1356, species assumed): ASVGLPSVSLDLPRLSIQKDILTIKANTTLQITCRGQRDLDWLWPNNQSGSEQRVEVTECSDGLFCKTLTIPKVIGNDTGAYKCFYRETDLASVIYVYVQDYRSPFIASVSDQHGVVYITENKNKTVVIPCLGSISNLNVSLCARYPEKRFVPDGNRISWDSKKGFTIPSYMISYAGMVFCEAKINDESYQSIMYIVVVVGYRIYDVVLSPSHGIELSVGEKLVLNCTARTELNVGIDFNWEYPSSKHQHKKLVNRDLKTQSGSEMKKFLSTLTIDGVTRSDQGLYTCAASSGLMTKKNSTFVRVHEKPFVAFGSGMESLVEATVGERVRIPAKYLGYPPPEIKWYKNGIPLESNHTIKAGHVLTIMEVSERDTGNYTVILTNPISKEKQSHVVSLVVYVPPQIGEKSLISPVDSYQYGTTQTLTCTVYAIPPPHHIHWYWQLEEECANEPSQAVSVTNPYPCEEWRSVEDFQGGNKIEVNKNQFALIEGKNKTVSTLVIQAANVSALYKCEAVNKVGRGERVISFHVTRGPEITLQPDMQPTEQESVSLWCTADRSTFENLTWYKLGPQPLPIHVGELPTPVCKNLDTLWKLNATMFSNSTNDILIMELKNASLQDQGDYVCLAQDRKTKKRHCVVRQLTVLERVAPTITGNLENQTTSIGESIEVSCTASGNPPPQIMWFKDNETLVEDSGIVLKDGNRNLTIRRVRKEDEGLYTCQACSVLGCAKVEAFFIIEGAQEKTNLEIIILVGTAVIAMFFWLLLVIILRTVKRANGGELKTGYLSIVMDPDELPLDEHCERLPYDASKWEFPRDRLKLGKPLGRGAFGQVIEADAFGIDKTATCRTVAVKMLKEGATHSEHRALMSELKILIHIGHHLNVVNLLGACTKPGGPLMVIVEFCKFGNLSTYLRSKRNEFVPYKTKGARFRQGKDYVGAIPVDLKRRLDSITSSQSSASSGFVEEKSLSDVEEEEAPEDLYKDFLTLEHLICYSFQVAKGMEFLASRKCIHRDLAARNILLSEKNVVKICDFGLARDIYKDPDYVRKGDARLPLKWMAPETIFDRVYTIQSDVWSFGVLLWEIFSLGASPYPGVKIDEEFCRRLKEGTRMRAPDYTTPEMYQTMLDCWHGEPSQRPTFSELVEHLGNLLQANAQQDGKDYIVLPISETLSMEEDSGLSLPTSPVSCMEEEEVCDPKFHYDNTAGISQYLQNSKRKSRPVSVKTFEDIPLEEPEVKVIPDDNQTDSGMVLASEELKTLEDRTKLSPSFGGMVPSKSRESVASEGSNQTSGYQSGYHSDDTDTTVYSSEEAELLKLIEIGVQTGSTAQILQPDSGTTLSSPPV

`CN1CSC(=S)N(C)C1` [Dazomet] gave a VBS in data set [1] (setting [2]) of 2.61.

With `CCNP(=S)(OC)O/C(C)=C/C(=O)OC(C)C` (centres unmarked) [Propetamphos], the VBS in data set [1] (setting [2]) stood at 2.08. Further, the Developmental phenotype entry with pregnant rabbits (setting [3]) was “Embryo fetal loss”.

In data set [1] (setting [4]), `Cc1nn(C)c(Oc2ccccc2)c1/C=N/OCc1ccc(C(=O)OC(C)(C)C)cc1` [(Z,E)-Fenpyroximate] registered a VBS of 3.88. Also, the Developmental phenotype entry with pregnant rats (setting [5]) is reported as “Skeletal: axial”.

`COP(=O)(OC)SCn1c(=O)oc2cc(Cl)cnc21` [Azamethiphos] showed a VBS in data set [1] (setting [2]) of 3.10. The Developmental phenotype result in the data set on pregnant rabbits (setting [3]) is listed as “Maternal pregnancy loss”.

The molecule `CCCSP(=O)(OCC)Oc1ccc(Br)cc1Cl` (centres unmarked) [Profenofos] showed a VBS in data set [1] (setting [4]) of 1.71. Moreover, the Developmental phenotype result in the data set with pregnant rats (setting [5]) is recorded as “Maternal pregnancy loss”.

Turning to `CC(C)(C)c1ccc(CSc2cnn(C(C)(C)C)c(=O)c2Cl)cc1` [pyridaben], the VBS in data set [1] (setting [6]) stood at 6.9.

Regarding `COP(=O)(OC)OC=C(Cl)Cl` [Dichlorvos], in data set [1] (setting [2]), the VBS was 2.34. Further, in the data set with pregnant rabbits (rabbit, in vivo), the Developmental phenotype result is listed as “Maternal pregnancy loss”.

`CON=C(C(=O)OC)c1ccccc1CON=C(C)c1cccc(C(F)(F)F)c1` [Trifloxystrobin] yielded a VBS in data set [1] (setting [2]) of 4.26. In addition, the Developmental phenotype entry with pregnant rabbits (setting [3]) was “Skeletal: axial”.

Regarding `CCc1cccc(C)c1N(C(=O)CCl)C(C)COC` (centres unmarked) [Metolachlor], in data set [1] (setting [4]), the VBS turned out to be 1.57. Further, the Developmental phenotype result in the data set on pregnant rats (setting [5]) is reported as “Fetal weight reduction; embryo fetal loss; maternal pregnancy loss”.

In data set [1] (setting [2]), `C#CCOS(=O)OC1CCCCC1Oc1ccc(C(C)(C)C)cc1` (centres unmarked) [Propargite] yielded a VBS of 3.79. The Developmental phenotype result in the data set with pregnant rabbits (setting [3]) is reported as “Skeletal: axial”.

In data set [1] (ToxCast chemicals of Table 2), `CN(C)[C@@H]1C(O)=C(C(N)=O)C(=O)[C@@]2(O)C(O)=C3C(=O)c4c(O)cccc4[C@@](C)(O)[C@H]3[C@H](O)[C@@H]12` [Oxytetracycline dihydrate, reference compound] registered a VBS of 3.85. In addition, the AC50 at TIE2 is 15 µM; at VEGFR3, 6.5 µM; on PTEN it was 1.6 µM; at VEGFR2, 19 µM; at PI3Ka it was 6.2 µM.

Consider `CCOc1cc(C(C)(C)C)ccc1C1COC(c2c(F)cccc2F)=N1` (centres unmarked) [Etoxazole], for which the VBS in data set [1] (setting [2]) is reported as 3.66. In addition, in the data set with pregnant rabbits (setting [3]), the Developmental phenotype result was “Skeletal: axial”.

In turn, `O=C1C2CC=CCC2C(=O)N1SC(Cl)(Cl)Cl` (centres unmarked) [Captan] registered a VBS in data set [1] (ToxCast chemicals of Table 2) of 1.14. The activity at PTEN was half-maximal at 35 µM (AC50).

In the case of `COP(=O)(OC)O/C(C)=C/C(=O)N(C)C` [Dicrotophos], the VBS in data set [1] (setting [2]) worked out at 1.59.

With `COC(=O)c1c(C(F)F)nc(C(F)(F)F)c(C2=NCCS2)c1CC(C)C` [Thiazopyr], the VBS in data set [1] (setting [4]) is on record as 2.00.

As for `CCCCCOC(=O)COc1cc(N2C(=O)C3=C(CCCC3)C2=O)c(F)cc1Cl` [Flumiclorac-pentyl], in data set [1] (setting [2]), the VBS is listed as 2.11. Also, in the data set on pregnant rabbits (setting [3]), the Developmental phenotype result is on record as “Maternal pregnancy loss”.

In data set [1] (setting [4]), `CCc1cccc(CC)c1N(COC)C(=O)CCl` [Alachlor] returned a VBS of 2.97. Besides, the Developmental phenotype result in the data set with pregnant rats (setting [5]) was “Fetal weight reduction; embryo fetal loss”.

In data set [1] (setting [4]), `CO/N=C(/C1=NOCCO1)c1ccccc1Oc1ncnc(Oc2ccccc2Cl)c1F` [Fluoxastrobin] showed a VBS of 2.79. The Developmental phenotype entry in the data set on pregnant rats (setting [5]) is on record as “Skeletal: appendicular”.

As for `CCC/C(=N\OCC)C1=C(O)CC(CC(C)SCC)CC1=O` (centres unmarked) [Sethoxydim], the VBS in data set [1] (ToxCast chemicals of Table 2) is given as 0.00. In addition, the AC50 at PTEN was 22 µM.

The molecule `CCCN(CCC)c1c([N+](=O)[O-])cc(C(F)(F)F)c(N)c1[N+](=O)[O-]` [Prodiamine] showed a VBS in data set [1] (setting [4]) of 2.19. Moreover, the Developmental phenotype entry with pregnant rats (setting [5]) is “Neurosensory: eye”.

Take Diniconazole: the VBS in data set [1] (setting [4]) was 4.57.

`CS/C(C)=N\OC(=O)N(C)SN(C)C(=O)O/N=C(\C)SC` [Thiodicarb] showed a VBS in data set [1] (setting [4]) of 2.97. In addition, in the data set with pregnant rats (setting [5]), the Developmental phenotype result is reported as “Fetal weight reduction, general fetal pathology; embryo fetal loss; maternal pregnancy loss; skeletal: axial”.

`N#CSCSC#N` [Methylene bis(thiocyanate)]: the VBS in data set [1] (setting [2]) was determined as 6.55. Also, the Developmental phenotype result in the data set on pregnant rabbits (setting [3]) is reported as “Maternal pregnancy loss”.

Molecule `CCS(=O)(=O)c1cccnc1S(=O)(=O)NC(=O)Nc1nc(OC)cc(OC)n1` [Rimsulfuron] yielded a VBS in data set [1] (setting [2]) of 2.52. In the data set with pregnant rabbits (rabbit, in vivo), the Developmental phenotype result is on record as “Embryo fetal loss; maternal pregnancy loss”.

`Cc1ccc(-c2c(Cl)nc(C#N)n2S(=O)(=O)N(C)C)cc1` [Cyazofamid] had a VBS in data set [1] (setting [4]) of 3.34. Moreover, the Developmental phenotype entry in the data set on pregnant rats (setting [5]) was “Skeletal: axial”.

For the molecule `CCOc1nc(F)cc2nc(S(=O)(=O)Nc3c(Cl)cccc3Cl)nn12` [Diclosulam], the VBS in data set [1] (ToxCast chemicals of Table 2) and in data set [1] (setting [2]) was 2.09 throughout. The Developmental phenotype result in the data set with pregnant rabbits (setting [3]) was “Maternal pregnancy loss”. For the same molecule, the AC50 at PTEN (read-out: PTEN AC50) amounted to 50 µM.

With `CCOC(=O)C(C)OC(=O)c1cc(Oc2ccc(C(F)(F)F)cc2Cl)ccc1[N+](=O)[O-]` (centres unmarked) [Lactofen], the VBS in data set [1] (setting [4]) is given as 3.18. The Developmental phenotype entry in the data set on pregnant rats (setting [5]) is reported as “Fetal weight reduction; maternal pregnancy loss; skeletal: appendicular; skeletal: axial”.

For `CCOC(=O)NCCOc1ccc(Oc2ccccc2)cc1` [Fenoxycarb], in data set [1] (setting [2]), the VBS was 3.60. For the same molecule, in the data set on pregnant rabbits (setting [3]), the Developmental phenotype entry was “Skeletal: axial”.

In data set [1] (setting [4]), `CCOCN(C(=O)CCl)c1c(C)cccc1CC` [Acetochlor] registered a VBS of 2.16.

Consider `COP(=O)(OC)OC(Br)C(Cl)(Cl)Br` (centres unmarked) [Naled], for which the VBS in data set [1] (setting [4]) amounted to 4.22. Also, the Developmental phenotype result with pregnant rats (setting [5]) is listed as “Embryo fetal loss; trunk: body wall”.

Molecule `CC1(C)C(C=C(Cl)Cl)C1C(=O)OC(C#N)c1ccc(F)c(Oc2ccccc2)c1` (centres unmarked) [cyfluthrin] displayed a VBS in data set [1] (setting [6]) of 1.48.

Turning to `C[C@@H]1[C@@H](c2ccc(Cl)cc2)SC(=O)N1C(=O)NC1CCCCC1` [Hexythiazox], the VBS in data set [1] (setting [4]) amounted to 2.78. Also, the Developmental phenotype entry in the data set on pregnant rats (setting [5]) is “Skeletal: appendicular”.

As for `CCOC(=O)COc1cc(-n2ncc(C(F)(F)F)c(C)c2=O)c(F)cc1Cl` [Flufenpyr-ethyl], the VBS in data set [1] (setting [2]) was 1.73. The Developmental phenotype entry with pregnant rabbits (setting [3]) is recorded as “Maternal pregnancy loss”.

`N#Cc1c(Cl)c(Cl)c(Cl)c(C#N)c1Cl` [Chlorothalonil] gave a VBS in data set [1] (setting [4]) of 3.28. For the same molecule, the Developmental phenotype result with pregnant rats (setting [5]) was “Embryo fetal loss; maternal pregnancy loss”.

`CCOc1cc(Oc2ccc(C(F)(F)F)cc2Cl)ccc1[N+](=O)[O-]` [Oxyfluorfen]: the VBS in data set [1] (setting [2]) came to 1.82. Moreover, in the data set on pregnant rabbits (setting [3]), the Developmental phenotype result was “Embryo fetal loss; maternal pregnancy loss”.

Consider `Oc1ccc(C(c2ccc(O)cc2)C(Cl)(Cl)Cl)cc1` [2,2-bis-(p-Hydroxyphenyl)-1,1,1-trichloroethane], for which the VBS in data set [1] (ToxCast chemicals of Table 2) came out at 2.28. For the same molecule, the AC50 on PI3Ka was found to be 28 µM.

As for `C#CCC1=C(C)C(OC(=O)C2C(C=C(C)C)C2(C)C)CC1=O` (centres unmarked) [Prallethrin], the VBS in data set [1] (setting [4]) amounted to 2.11. Also, in the data set with pregnant rats (setting [5]), the Developmental phenotype entry is “Maternal pregnancy loss”.

The molecule `C=CCOC(=O)C(C)(C)OC(=O)c1cc(-n2c(=O)cc(C(F)(F)F)n(C)c2=O)ccc1Cl` [Butafenacil] showed a VBS in data set [1] (setting [2]) of 2.94. The Developmental phenotype result in the data set with pregnant rabbits (setting [3]) is given as “Embryo fetal loss”.

In turn, `CCC(C)(C)C(=O)OC1=C(c2ccc(Cl)cc2Cl)C(=O)OC12CCCCC2` [Spirodiclofen] displayed a VBS in data set [1] (setting [4]) of 3.15. The Developmental phenotype result is “Urogenital: renal” with pregnant rats (setting [5]) and “urogenital end points” in the data set on pregnant rats (rat-specific effects in ToxRefDB prenatal studies, ref U.S. EPA 2010b, listed as spirodiclofen).

Take `Fc1ccc(Oc2ccnc3cc(Cl)cc(Cl)c23)cc1` [Quinoxyfen]: the VBS in data set [1] (setting [2]) is 3.02. Besides, the Developmental phenotype result in the data set with pregnant rabbits (rabbit, in vivo) was “Maternal pregnancy loss”.

The molecule `FC(F)C(F)(F)OCC(Cn1cncn1)c1ccc(Cl)cc1Cl` (centres unmarked) [Tetraconazole] registered a VBS in data set [1] (setting [4]) of 2.23. Moreover, the Developmental phenotype result in the data set on pregnant rats (rat, in vivo) was “urogenital end points”; in the data set with pregnant rats (setting [5]), “General fetal pathology; skeletal: axial; urogenital: renal, ureteric”.

In turn, `C[C@@]1(c2ccc(Oc3ccccc3)cc2)OC(=O)N(Nc2ccccc2)C1=O` (racemic) [Famoxadone] showed a VBS in data set [1] (setting [2]) of 1.82. The Developmental phenotype result in the data set with pregnant rabbits (setting [3]) was “Embryo fetal loss; maternal pregnancy loss”.

As to `CC1(C)C(C(=O)OC(C#N)c2cccc(Oc3ccccc3)c2)C1(C)C` (centres unmarked) [Fenpropathrin], the VBS in data set [1] (setting [4]) was 2.18. In addition, the Developmental phenotype result in the data set on pregnant rats (rat, in vivo) is “Maternal pregnancy loss”.

Take `OC(c1ccc(Cl)cc1)(c1ccc(Cl)cc1)C(Cl)(Cl)Cl` [Dicofol]: the VBS in data set [1] (setting [2]) was 1.92. Besides, the Developmental phenotype entry in the data set on pregnant rabbits (setting [3]) is “Maternal pregnancy loss”.

The molecule `CCCCOCN(C(=O)CCl)c1c(CC)cccc1CC` [Butachlor] gave a VBS in data set [1] (setting [2]) of 1.99.

In the case of `N#Cc1c[nH]cc1-c1cccc2c1OC(F)(F)O2` [Fludioxonil], the VBS in data set [1] (setting [4]) was 1.82. For the same molecule, the Developmental phenotype entry is listed as “Urogenital: renal, ureteric” in the data set with pregnant rats (setting [5]) and “urogenital end points” in the data set on pregnant rats (rat-specific effects in ToxRefDB prenatal studies, ref U.S. EPA 2010b, listed as fludioxonil).

In data set [1] (setting [2]), `CC1=C(C(=O)Nc2ccccc2)SCCO1` [Carboxin] displayed a VBS of 1.56. The Developmental phenotype result in the data set on pregnant rabbits (setting [3]) is “Maternal pregnancy loss”.
